Assay: Pigment stabilization effect (sequestering agent combination)
Set-up: key to Sunlight exposure (80 MJ) Appearance: A: No change; B: No almost change; C: Yes change; key to Sunlight exposure (80 MJ) ΔE: color difference ΔE in Lab space vs. color before sunlight exposure
Conditions: for Sunlight exposure (80 MJ) ΔE / Sunlight exposure (80 MJ) Appearance: amounts wt %
Protocol: First of all, the photostabilization effect and appearance changes of a composition for each pigment were studied by the following evaluation formulation.
Each test sample was prepared. Observation of appearance changes (visual evaluation) and measurement of color difference (ΔE) were carried out for samples exposed to sunlight (around 80 MJ).
Color difference was measured by Lab coordinate system with spectrophotometer. Color difference was calculated based on the color before sunlight exposure. Namely, from the measured value (L1,a1,b1) before sunlight exposure, color difference (ΔE) was calculated by following formula.

[1] = colorant Red No. 401 0.001, photostabilizer 0.02 + Sodium polyphosphate 0.1
[2] = colorant Red No. 401 0.001, photostabilizer 0.03 + Trisodium ethylenediamine tetraacetate 0.1
[3] = colorant Red No. 401 0.001, photostabilizer 0.03, no sequestering agent
[4] = colorant Yellow No. 5 0.001, photostabilizer 0.01 + Sodium metaphosphate 0.02
[5] = colorant Yellow No. 5 0.001, photostabilizer 0.01 + Sodium polyphosphate 0.02
[6] = colorant Yellow No. 5 0.001, photostabilizer 0.01 + Trisodium ethylenediamine tetraacetate 0.02
[7] = colorant Yellow No. 5 0.001, photostabilizer 0.01, no sequestering agent
[8] = colorant Yellow No. 203 0.001, photostabilizer 0.01 + Sodium metaphosphate 0.02
[9] = colorant Yellow No. 203 0.001, photostabilizer 0.01 + Trisodium ethylenediamine tetraacetate 0.02
[10] = colorant Yellow No. 203 0.001, photostabilizer 0.01 + Trisodium hydroxyethyl ethylenediamine triacetate 0.02
[11] = colorant Yellow No. 203 0.001, photostabilizer 0.01, no sequestering agent
[12] = colorants Red No. 106 0.00001 + Yellow No. 5 0.0001, photostabilizer 0.02 + Trisodium ethylenediamine tetraacetate 0.02
[13] = colorants Red No. 106 0.00001 + Yellow No. 5 0.0001, photostabilizer 0.02, no sequestering agent
[14] = colorants Red No. 106 0.00001 + Yellow No. 203 0.0001, photostabilizer 0.02 + Trisodium hydroxyethyl ethylenediamine triacetate 0.02
[15] = colorants Red No. 106 0.00001 + Yellow No. 203 0.0001, photostabilizer 0.02, no sequestering agent
[16] = colorants Red No. 213 0.00001 + Blue No. 1 0.00001, photostabilizer 0.02 + Trisodium hydroxyethyl ethylenediamine triacetate 0.03
[17] = colorants Red No. 213 0.00001 + Blue No. 1 0.00001, photostabilizer 0.02, no sequestering agent
[18] = colorants Red No. 227 0.0001 + Yellow No. 5 0.0001, photostabilizer 0.02 + Trisodium ethylenediamine tetraacetate 0.02
[19] = colorants Red No. 227 0.0001 + Yellow No. 5 0.0001, photostabilizer 0.02, no sequestering agent
[20] = colorants Red No. 227 0.0001 + Yellow No. 203 0.0001, photostabilizer 0.05 + Sodium metaphosphate 0.02
[21] = colorants Red No. 227 0.0001 + Yellow No. 203 0.0001, photostabilizer 0.05, no sequestering agent
[22] = colorants Red No. 401 0.0001 + Blue No. 1 0.00001, photostabilizer 0.02 + Trisodium ethylenediamine tetraacetate 0.03
[23] = colorants Red No. 401 0.0001 + Blue No. 1 0.00001, photostabilizer 0.02, no sequestering agent
[24] = colorants Red No. 401 0.0001 + Green No. 3 0.00001, photostabilizer 0.02 + Sodium metaphosphate 0.03
[25] = colorants Red No. 401 0.0001 + Green No. 3 0.00001, photostabilizer 0.02, no sequestering agent
[26] = colorants Yellow No. 203 0.0001 + Yellow No. 5 0.0001, photostabilizer 0.02 + Sodium metaphosphate 0.01
[27] = colorants Yellow No. 203 0.0001 + Yellow No. 5 0.0001, photostabilizer 0.02, no sequestering agent

For `Oc1nncc(N2CCOCC2)c1N1CCOCC1` [4,5-Dimorpholino-3-hydroxypyridazine], the “Sunlight exposure (80 MJ) ΔE” value (colorant Red No. 401 0.001, photostabilizer 0.02 + Sodium metaphosphate 0.1) was 0.66, the “Sunlight exposure (80 MJ) Appearance” value [1] was “A” and the “Sunlight exposure (80 MJ) ΔE” value [1] was 0.78. For the same compound, the “Sunlight exposure (80 MJ) Appearance” value [2] was “A”, the “Sunlight exposure (80 MJ) ΔE” value [2] was 0.71 and the “Sunlight exposure (80 MJ) Appearance” value [3] was “A”. For the same compound, the “Sunlight exposure (80 MJ) ΔE” value [3] was 0.95, the “Sunlight exposure (80 MJ) Appearance” value [4] was “A” and the “Sunlight exposure (80 MJ) ΔE” value [4] was 0.36. The “Sunlight exposure (80 MJ) Appearance” value [5] was “A”, the “Sunlight exposure (80 MJ) ΔE” value [5] was 0.33 and the “Sunlight exposure (80 MJ) Appearance” value [6] was “A”. The “Sunlight exposure (80 MJ) ΔE” value [6] was 0.32, the “Sunlight exposure (80 MJ) Appearance” value [7] was “B” and the “Sunlight exposure (80 MJ) ΔE” value [7] was 0.61. For the same compound, the “Sunlight exposure (80 MJ) Appearance” value [8] was “A”, the “Sunlight exposure (80 MJ) ΔE” value [8] was 0.22 and the “Sunlight exposure (80 MJ) Appearance” value [9] was “A”. For the same compound, the “Sunlight exposure (80 MJ) ΔE” value [9] was 0.28, the “Sunlight exposure (80 MJ) Appearance” value [10] was “A” and the “Sunlight exposure (80 MJ) ΔE” value [10] was 0.25. The “Sunlight exposure (80 MJ) Appearance” value [11] was “B”, the “Sunlight exposure (80 MJ) ΔE” value [11] was 0.95 and the “Sunlight exposure (80 MJ) Appearance” value [12] was “A”. The “Sunlight exposure (80 MJ) ΔE” value [12] was 0.98, the “Sunlight exposure (80 MJ) Appearance” value [13] was “B” and the “Sunlight exposure (80 MJ) ΔE” value [13] was 1.33. The “Sunlight exposure (80 MJ) Appearance” value [14] was “A”, the “Sunlight exposure (80 MJ) ΔE” value [14] was 0.75 and the “Sunlight exposure (80 MJ) Appearance” value [15] was “A”. The “Sunlight exposure (80 MJ) ΔE” value [15] was 1.10, the “Sunlight exposure (80 MJ) Appearance” value [16] was “A” and the “Sunlight exposure (80 MJ) ΔE” value [16] was 1.22. For the same compound, the “Sunlight exposure (80 MJ) Appearance” value [17] was “B”, the “Sunlight exposure (80 MJ) ΔE” value [17] was 1.88 and the “Sunlight exposure (80 MJ) Appearance” value [18] was “A”. For the same compound, the “Sunlight exposure (80 MJ) ΔE” value [18] was 0.71, the “Sunlight exposure (80 MJ) Appearance” value [19] was “B” and the “Sunlight exposure (80 MJ) ΔE” value [19] was 1.02. For the same compound, the “Sunlight exposure (80 MJ) Appearance” value [20] was “A”, the “Sunlight exposure (80 MJ) ΔE” value [20] was 1.01 and the “Sunlight exposure (80 MJ) Appearance” value [21] was “A”. For the same compound, the “Sunlight exposure (80 MJ) ΔE” value [21] was 1.55, the “Sunlight exposure (80 MJ) Appearance” value [22] was “A” and the “Sunlight exposure (80 MJ) ΔE” value [22] was 0.88. The “Sunlight exposure (80 MJ) Appearance” value [23] was “A”, the “Sunlight exposure (80 MJ) ΔE” value [23] was 1.36 and the “Sunlight exposure (80 MJ) Appearance” value [24] was “A”. For the same compound, the “Sunlight exposure (80 MJ) ΔE” value [24] was 0.73, the “Sunlight exposure (80 MJ) Appearance” value [25] was “B” and the “Sunlight exposure (80 MJ) ΔE” value [25] was 1.45. For the same compound, the “Sunlight exposure (80 MJ) Appearance” value [26] was “A”, the “Sunlight exposure (80 MJ) ΔE” value [26] was 0.48 and the “Sunlight exposure (80 MJ) Appearance” value [27] was “A”. The “Sunlight exposure (80 MJ) ΔE” value [27] was 0.78, the “color difference ΔE” value (with a sequestering agent, compared with compositions not having a sequestering agent, Tables 24 to 26) was “very small” and the “change of appearance of the composition” value (with a sequestering agent, Tables 24 to 26) was “small”.

— patent US6395896B2, “Pyridazine derivatives, manufacturing method and related composition” (Shiseido Co., Ltd., priority 1999, dated 2002)
